# Measurements from US20100331384A1, “GUANIDINE BASED COMPOUNDS” (UNIVERSIDAD DEL PAIS VASCO/EUSKAL HERRIKO UNIBERTSITATEA, priority 2007, published 2010).
# Columns and labels:
# α2-ARs [1] = biological target: T1, α2-ARs (Homo sapiens, UniProt P08913); assay: [35S]GTPγS binding functional assay, compounds alone; format: biochemical; details: for agonistic or antagonistic properties in [35S]GTPγS experiments: human brain PFC; for stimulation of [35S]GTPγS binding by the compound on its own: human brain PFC membranes
# T1 construct: other: human brain tissue in vitro; other: stimulation of [35S]GTPγS b
# Description: The [^35S]GTPγs binding assay constitutes a functional measure of the interaction of the receptor and the G-protein and is a useful tool to distinguish between agonists (increasing the nucleotide binding), inverse agonists (decreasing the nucleotide binding), and neutral antagonists (not affecting the nucleotide binding) of GPCRs.^20 Experiments were performed in low-affinity receptor conditions for agonists (presence of guanine nucleotides and sodium in the medium), and therefore, typical potency values are two-three logarithmic units lower than affinity values obtained in radioligand receptor binding experiments.^20
# (§1) Preparation of membranes. Neural membranes (P2 fractions) were prepared from the PFC of human brains obtained at autopsy in the Instituto Vasco de Medicina Legal, Bilbao, Spain. Postmortem human brain samples of each subject (˜1 g) were homogenized using a Teflon-glass grinder (10 up-and-down strokes at 1500 rpm) in 30 volumes of homogenization buffer (1 mM MgCl2, and 5 mM Tris-HCl, pH 7.4) supplemented with 0.25 M sucrose. The crude homogenate was centrifuged for 5 min at 1000×g ([…]) and the supernatant was centrifuged again for 10 min at 40000×g (4° C.). The resultant pellet was washed twice in 20 volumes of homogenization buffer and recentrifuged in similar conditions. Aliquots of 1 mg protein were stored at −70° C. until assay.
# [^35S]GTPγs binding assays. The incubation buffer for measuring [^35S]GTPγs binding to brain membranes contained, in a total volume of 500 μL, 1 mM EGTA, 3 mM MgCl2, 100 mM NaCl, […], 50 mM Tris-HCl at pH 7.4 and 0.5 nM [^35S]GTPγs. Proteins aliquots were thawed and re-suspended in the same buffer. The incubation was started by addition of the membrane suspension (40 μg of membrane proteins) to the previous mixture and was performed at 30° C. for 120 min with shaking. In order to evaluate the influence of the compounds on [^35S]GTPγs binding, 8 concentrations (10^−10 to 10^−3M) of the different compounds were added to the assay. Incubations were terminated by adding 3 mL of ice-cold re-suspension buffer followed by rapid filtration through Whatman GF/C filters pre-soaked in the same buffer. The filters were rinsed twice with 3 mL of ice-cold re-suspension buffer, transferred to vials containing 5 mL of OptiPhase HiSafe II cocktail (Wallac, UK) and the radioactivity trapped was determined by liquid scintillation spectrometry (Packard 2200CA). […] Non-specific binding of the radioligand was defined as the remaining [^35S]GTPγs binding in the presence of 10 μM unlabelled GTPγs.
# α2-ARs [2] = biological target: T1, α2-ARs; assay: [3H]RX821002 competition binding assay in human brain PFC membranes; details: human brain tissue in vitro
# [3] = system: cloned human α2-AR receptor; details: disclosed in WO9846572; cited from earlier work
# mice = assay: Tail suspension test; format: in vivo; details: compared with saline control, FIG. 4
# Text: The tail suspension test as illustrated in FIG. 4 has become one of the most widely used models for assessing antidepressant-like activity in mice. The test is based on the fact that animals subjected to the short-term, inescapable stress of being suspended by their tail, will develop an immobile posture. Antidepressant medications encourage the animal to struggle and promote the occurrence of escape-related behaviour.
# [4] = system: extracellular NA levels in the PFC; assay: In vivo microdialysis in the PFC, extracellular NA; set-up: species or system male Sprague Dawley rats; details: for Emax of increase in extracellular NA levels: local administration by reverse dialysis 1-100 μM in PFC, percentage of basal values
# Text: Intracerebral microdialysis is a neurochemical technique that has been applied extensively in pharmacological studies aimed at investigating the effect of different drugs on brain neurotransmission. This technique allows one to collect a representative concentration of different neurotransmitters of the area where the probe is implanted while the animals are awake and freely moving.^21
# Most antidepressant drugs are able to increase NA extracellular concentrations in different brain areas as the PFC, an area implicated in depression disease. Considering that α2-ARs exert a tonic inhibitory action on NA release from the noradrenergic terminals we assessed the ability of these two new compounds to increase NA extracellular concentration in this area. First, we tested the drugs when administered locally in order to confirm their antagonistic activity over α2-ARs in vivo.
# A second step was to study the effect of these compounds increasing NA extracellular concentrations when administered systemically.
# In Vivo Microdialysis assays. The experiments were carried out in male Sprague Dawley rats weighing between 250 g and 300 g. At the beginning of the experiments, animals were anaesthetized with chloral hydrate (400 mg/kg i.p.) and a microdialysis probe was implanted by stereotaxic surgery into prefrontal cortex (PFC) brain area. The coordinates selected for the PFC were as follows: AP (anterior to bregma) +2.8 mm, L (lateral from the mid-sagittal suture) +1 mm, DV (ventral from the dura surface) −5 mm.^22 After 24 hours for animal recovery, perfusion fluid (artificial cerebrospinal fluid) is pumped through the probe at a flow rate of 1 μl/min. In the semipermeable membrane, that is the critical side of the probe and is placed on the selected area, molecules flow into and out the cannulae by diffusion. Therefore, microdialysis technique allows local administration of substrates dissolved in the perfusion fluids.
# When drugs were locally administered, they were dissolved in a CSF and applied during 70 min via dialysis probe implanted in the PFC in increasing concentrations of 1, 10 and 100 μM. The compounds systemically administered were dissolved in saline and injected intraperitoneally.
# Samples, collected with the microdialysis procedure (every 35 min), were analyzed by HPLC with electrochemical detection. NA concentrations were monitorizated by an amperometric detector (Hewlett-Packard model 1049A) at an oxidizing potential of +650 mV. The movil phase (12 mM citric acid, 1 mM EDTA, 0.7 mM octylsodio sulfate, pH 5 and 10% methanol) was filtered, degassed (Hewlett-Packard model 1100 degasser) and delivered at a flow rate of 0.2 ml/min by a Hewlett-Packard model 1100 pump. Stationary phase was a column of 150×2.1 mm (Thermo Electron Corporation, U.S.A.). Samples (injection volume 37 μl) were injected and NA analized in a run time of 10 min. Solution of standard noradrenaline was injected every working day to create a new calibration table.
# The mean values of the first three samples before substrate administration were considered as 100% basal value. All measures of extracellular NA concentrations are expressed as percentage of the baseline value±s.e.mean. One way analysis of variance (ANOVA) for control group or two way ANOVA between control and each treated group was assessed for statistical analysis. After the experiments, rats were sacrificed with an overdose of chloral hydrate and the brains were dissected to check the correct implantation of the probe.
# α2-ARs [5] = biological target: T1, α2-ARs; assay: [3H]RX821002 competition binding assay in human brain PFC membranes; details: human brain PFC tissue, competition with [3H]RX821002 1 nM
# Description: as §1
# [^3H]RX821002 binding assays. […] Incubations were terminated by diluting the samples with 5 ml of ice-cold Tris incubation buffer (4° C.). Membrane bound [^3H]RX821002 was separated by vacuum filtration through Whatman GF/C glass fibre filters. Then, the filters were rinsed twice with 5 ml of incubation buffer and transferred to minivials containing 3 ml of OptiPhase “HiSafe” II cocktail and counted for radioactivity by liquid scintillation spectrometry. Specific binding was determined and plotted as a function of the compound concentration. Non-specific binding was determined in the presence of adrenaline (10^−5 M).
# Analysis of binding data. Analysis of competition experiments to obtain the inhibition constant (Ki) were performed by nonlinear regression using the GraphPad Prism program. All experiments were analysed assuming a one-site model of radioligand binding. Ki values were normalized to pKi values.
# T1 sequence (P08913 whole entry): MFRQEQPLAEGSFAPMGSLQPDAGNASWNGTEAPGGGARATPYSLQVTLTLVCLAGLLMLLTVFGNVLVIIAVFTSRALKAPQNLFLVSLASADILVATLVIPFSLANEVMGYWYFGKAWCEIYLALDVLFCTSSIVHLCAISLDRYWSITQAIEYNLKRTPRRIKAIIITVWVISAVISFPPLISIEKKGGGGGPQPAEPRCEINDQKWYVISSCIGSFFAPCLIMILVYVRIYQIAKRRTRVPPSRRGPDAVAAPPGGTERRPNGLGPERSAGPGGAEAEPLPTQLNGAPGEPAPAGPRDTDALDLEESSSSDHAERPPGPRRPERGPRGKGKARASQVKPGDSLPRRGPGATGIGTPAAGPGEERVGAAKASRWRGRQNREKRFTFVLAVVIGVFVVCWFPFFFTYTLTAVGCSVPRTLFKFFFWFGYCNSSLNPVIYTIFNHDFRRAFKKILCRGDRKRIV
ability to cross the blood brain barrier (BBB) ([4]; deduced from NA increase after systemic administration),affinity for the α2-ARs expressed as pKi (α2-ARs [5]),SMILES,agonistic or antagonistic properties in [35S]GTPγS experiments (α2-ARs [1]),stimulation of [35S]GTPγS binding by the compound on its own (α2-ARs [1]),"Emax (α2-ARs [1]; read-out: Emax (%), percentage efficacy relative to UK14304) [%]",affinity towards the α2-ARs compared with references (α2-ARs [2]),activity at cloned human α2-AR receptor [3],immobility period (mice),Emax of increase in extracellular NA levels [4] [%],"α2-AR antagonist properties in vivo ([4]; local and systemic administration, rats)","increase of NA extracellular concentration, maximal effect ([4]; systemic (intraperitoneal) administration, evaluated in PFC) [%]"
,,"c1cc2c(cc1NC1=NCCN1)CCC2 [Compound 9b, 5-(2-imidazolidinylimino)indan]",agonistic properties,stimulated binding,98,within the range of those of Idazoxan and/or Clonidine,agonist,,,,
able to cross the blood brain barrier,,"c1cc(NC2=NCCN2)ccc1CCc1ccc(NC2=NCCN2)cc1 [Compound 20b, 4,4′-di(2-imidazolidinylimino)-1,2-diphenylethane]",antagonistic properties,did not stimulate binding,,within the range of those of Idazoxan and/or Clonidine,,slightly shorter immobility period than the saline control,255±76,α2-AR antagonist properties in vivo,156±35
,9.04,"COC1(C2=NCCN2)COc2ccccc2O1 (stereo not drawn) [RX821002, 2-methoxy-idazoxan, reference compound]",,,,,,,287±49,,
